Experimental data as given in US12042539B2, “Compositions and kits for Omeprazole suspension” (Azurity Pharmaceuticals, Inc., priority 2019, dated 2024).
≈ marks a conversion by molar mass, not a printed value. Read-outs that look alike come from different tables or passages of the source.

Key:
[1] = Phase solubility of omeprazole at different concentrations of poloxamer 188; type: physicochemical; settings: for solubility: thermodynamic from solid, read-out: Soluble fraction
[2] = Related substance (omeprazole impurities) at stability time points; type: physicochemical; settings: Omeprazole API
Text: Monitoring the trend of increase in chemical impurities/related substances is important with respect to stability of a formulation. Related substance data developed during stability studies of a formulation play a crucial role with respect to determining a useable shelf life for a formulation.
Specification: • a. […] 5-Methoxy-1H-Benzimidazol-2-thiol: NMT 0.50% • c. Omeprazole sulphone N-Oxide: NMT 0.50% • d. Omeprazole N-Oxide: NMT 0.50% • e. Omeprazole Sulphone: NMT 0.50% • f Omeprazole 4-Chloro analog (IMP-H): NMT 0.50% • g. Sulphide (Ufiprazole): NMT 0.50% • h. Desmethoxy Omeprazole: NMT 0.50% • i. Any other individual impurity: NMT 0.20% • j. Total impurities: NMT 2.0%

[3] = cited from earlier work
[4] = cited from earlier work; remark: listed apart in the source
[5] = target: P-glycoprotein (Homo sapiens, UniProt P08183); settings: cited from earlier work
Chain of P-glycoprotein (P08183 whole entry): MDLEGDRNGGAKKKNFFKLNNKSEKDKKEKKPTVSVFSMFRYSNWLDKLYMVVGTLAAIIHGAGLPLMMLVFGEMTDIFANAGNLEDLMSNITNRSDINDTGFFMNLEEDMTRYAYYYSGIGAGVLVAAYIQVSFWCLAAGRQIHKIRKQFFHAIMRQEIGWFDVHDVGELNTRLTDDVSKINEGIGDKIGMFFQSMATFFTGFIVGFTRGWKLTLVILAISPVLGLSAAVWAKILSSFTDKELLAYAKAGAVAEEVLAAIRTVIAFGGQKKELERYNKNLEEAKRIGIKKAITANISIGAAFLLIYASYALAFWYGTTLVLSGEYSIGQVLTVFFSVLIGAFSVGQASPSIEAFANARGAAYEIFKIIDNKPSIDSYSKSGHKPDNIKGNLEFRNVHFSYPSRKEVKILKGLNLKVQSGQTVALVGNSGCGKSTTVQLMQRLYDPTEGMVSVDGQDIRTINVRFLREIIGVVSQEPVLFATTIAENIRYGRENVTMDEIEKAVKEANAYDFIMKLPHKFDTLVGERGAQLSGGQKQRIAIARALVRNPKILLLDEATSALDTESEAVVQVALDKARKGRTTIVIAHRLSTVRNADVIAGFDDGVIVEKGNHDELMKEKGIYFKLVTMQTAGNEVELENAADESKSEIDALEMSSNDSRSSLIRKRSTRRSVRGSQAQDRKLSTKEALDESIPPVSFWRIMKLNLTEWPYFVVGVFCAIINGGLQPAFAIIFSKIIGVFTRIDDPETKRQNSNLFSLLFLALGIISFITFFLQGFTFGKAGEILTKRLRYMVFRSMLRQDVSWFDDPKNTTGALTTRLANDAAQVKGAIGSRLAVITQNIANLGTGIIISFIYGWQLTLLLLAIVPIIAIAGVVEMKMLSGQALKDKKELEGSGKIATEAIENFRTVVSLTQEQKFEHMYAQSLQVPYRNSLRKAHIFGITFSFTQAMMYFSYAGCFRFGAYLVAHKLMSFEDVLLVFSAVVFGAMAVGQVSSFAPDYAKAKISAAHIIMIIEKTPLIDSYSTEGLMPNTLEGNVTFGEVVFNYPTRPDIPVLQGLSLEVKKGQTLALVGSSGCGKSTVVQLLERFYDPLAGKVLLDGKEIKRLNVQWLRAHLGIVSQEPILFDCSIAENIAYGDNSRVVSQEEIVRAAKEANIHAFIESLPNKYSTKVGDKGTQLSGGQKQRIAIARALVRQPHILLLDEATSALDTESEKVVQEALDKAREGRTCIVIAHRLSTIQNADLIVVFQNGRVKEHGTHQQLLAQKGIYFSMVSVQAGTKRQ

[6] = PXRD of reconstituted suspensions (polymorphic form of omeprazole API); type: physicochemical; settings: 3M and 6M Day 30, 25° C./60% RH and 2-8° C.
Procedure: To evaluate the polymorphic characteristic of omeprazole API during reconstitution stability studies, the reconstituted suspensions were analyzed by X-ray diffraction (XRD) at 3M and 6M time points at 25° C./60% RH and 2-8° C. conditions.

[7] = increase in poloxamer concentration beyond 10 mg/mL; cited from earlier work

## COc1ccc2[nH]c([S+]([O-])Cc3ncc(C)c(OC)c3C)nc2c1 (centres unmarked) [Omeprazole]
[1]; 0 % w/v Poloxamer Content
  Soluble fraction (%): 10.9%
[1]; 0% w/v poloxamer 188 (base solvent not stated), 0 % w/v Poloxamer Content
  solubility: 0.218 mg/mL (≈ 631 µM)
[1]; 0.5 % w/v Poloxamer Content
  Soluble fraction (%): 15.6%
[1]; 1 % w/v Poloxamer Content
  Soluble fraction (%): 17.1%
[1]; 2 % w/v Poloxamer Content
  Soluble fraction (%): 47.8%
[1]; 4 % w/v Poloxamer Content
  Soluble fraction (%): 47.3%
[1]; at higher poloxamer 188 content (above 1% w/v)
  Omeprazole solubility: increased significantly
[1]; poloxamer 188 at 2% w/v (base solvent not stated), aqueous with cosolvent or surfactant or cyclodextrin, 2 % w/v Poloxamer Content
  solubility: 0.957 mg/mL (≈ 2770 µM)
[1]; poloxamer 188 at 4% w/v (base solvent not stated), aqueous with cosolvent or surfactant or cyclodextrin, 4 % w/v Poloxamer Content
  solubility: 0.946 mg/mL (≈ 2740 µM)
[1]; poloxamer 188 solution (0.5% w/v), aqueous with cosolvent or surfactant or cyclodextrin, 0.5 % w/v Poloxamer Content
  solubility: 0.313 mg/mL (≈ 906 µM)
[1]; poloxamer 188 solution (1% w/v), aqueous with cosolvent or surfactant or cyclodextrin, 1 % w/v Poloxamer Content
  solubility: 0.342 mg/mL (≈ 990 µM)
[1]; up to 1% w/v poloxamer 188
  Impact of poloxamer 188 content on omeprazole solubility: did not show any significant impact
[2]
  Related Substance: Omeprazole F&G: 0.031%
  Related Substance: Omeprazole sulphone N-Oxide: Not Detected
  Related Substance: Total impurities: 0.05%
[2]; LOQ (0.01%)
  Related Substance: 5-Methoxy Benzamidazole 2 thiol: Less than LOQ
  Related Substance: Desmethoxy Omeprazole: Less than LOQ
  Related Substance: Omeprazole 4-Chloro analog (IMP-H): Less than LOQ
  Related Substance: Omeprazole N-Oxide: Less than LOQ
  Related Substance: Omeprazole Sulphide: Less than LOQ
  Related Substance: Omeprazole Sulphone (IMP-A): Less than LOQ
[3]
  Log P: 2.43
[3]; in water
  solubility: Very slightly soluble in water
[4]; in vivo
  half-life: 30 to 60 min
[4]; marketed formulations of omeprazole
  Peak Plasma concentration, time to achieve: very rapidly
[5]
  P-gp inhibition effects: does not have P-gp inhibition effects
  P-gp substrate: moderate P-gp substrate
[6]
  Polymorphic form conversion (PXRD): no polymorphic form conversion

## CC(C)(C)NCC(O)COc1cccc2c1CC(O)C(O)C2 (centres unmarked) [nadolol]
[7]
  Effect of poloxamer on permeability: didn't show a significant effect
